Data: patent publication US20090291938A1 (TAKEDA PHARMACEUTICAL COMPANY LIMITED, priority 2007, published 2009)

system: HT29 human colorectal adenocarcinoma cell line; assay: cell proliferation assay (Cell Titer-Glo luminescent cell viability assay); format: cell-based; conditions: HT-29, 72 h, read-out: pIC50 (converted)
In short: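 Cells grown in DMEM with 10% FBS and exposed to compounds for 72 h. Viability read by CellTiter-Glo luminescence, expressed as percentage of DMSO-treated cells.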

Row | SMILES | IC50
1 | CN1CCC(NC(=O)c2ccc(Nc3ncc4c(n3)N(C3CCCC3)CC(C)(C)C(=O)N4C)c(O)c2)CC1 [Compound 121] | 3.16 to 10 nM
2 | CC(C)Oc1cc(C(=O)NC2CCN(C)CC2)ccc1Nc1ncc2c(n1)N(C1CCCC1)CC(C)(C)C(=O)N2C [Compound 122, 4-(9-cyclopentyl-5,7,7-trimethyl-6-oxo-6,7,8,9-tetrahydro-5H-pyrimido[4,5-b][1,4]diazepin-2-ylamino)-3-isopropoxy-N-(1-methylpiperidin-4-yl)benzamide] | > 10 nM
3 | CN1CCC(NC(=O)c2ccc(Nc3ncc4c(n3)N(C3CCCC3)CC(C)(C)C(=O)N4C)c(OC(F)F)c2)CC1 [Compound 127, 4-(9-Cyclopentyl-5,7,7-trimethyl-6-oxo-6,7,8,9-tetrahydro-5H-pyrimido[4,5-b][1,4]diazepin-2-ylamino)-3-(difluoromethoxy)-N-(1-methylpiperidin-4-yl)benzamide] | > 10 nM
4 | CCC1(C)CN(C2CCCC2)c2nc(Nc3ccc(C(=O)NC4CCN(C)CC4)cc3OC)ncc2N(C)C1=O (centres unmarked) [Compound 131, 4-(9-Cyclopentyl-7-ethyl-5,7-dimethyl-6-oxo-6,7,8,9-tetrahydro-5H-pyrimido[4,5-b][1,4]diazepin-2-ylamino)-3-methoxy-N-(1-methylpiperidin-4-yl)benzamide] | 3.16 to 10 nM

same assay, conditions: HT-29, cell proliferative assay, HT29 cells, 72 hr treatment, values given as ranges, read-out: pIC50 (converted)

Row | SMILES | IC50
5 | COc1cc(C(=O)NC2CNC2)ccc1Nc1ncc2c(n1)N(C1CCCCC1)CC(C)(C)C(=O)N2C [Compound 118, N-(azetidin-3-yl)-4-(9-cyclohexyl-5,7,7-trimethyl-6-oxo-6,7,8,9-tetrahydro-5H-pyrimido[4,5-b][1,4]diazepin-2-ylamino)-3-methoxybenzamide] | 3.16 to 10 nM
6 | COc1cc(C(=O)NC2CCCNCC2)ccc1Nc1ncc2c(n1)N(C1CCCCC1)CC(C)(C)C(=O)N2C (centres unmarked) [Compound 119, N-(azepan-4-yl)-4-(9-cyclohexyl-5,7,7-trimethyl-6-oxo-6,7,8,9-tetrahydro-5H-pyrimido[4,5-b][1,4]diazepin-2-ylamino)-3-methoxybenzamide] | 3.16 to 10 nM
7 | CCOc1cc(C(=O)NC2CCN(C)CC2)ccc1Nc1ncc2c(n1)N(C1CCCC1)CC(C)(C)C(=O)N2C [Compound 123, 4-(9-cyclopentyl-5,7,7-trimethyl-6-oxo-6,7,8,9-tetrahydro-5H-pyrimido[4,5-b][1,4]diazepin-2-ylamino)-3-ethoxy-N-(1-methylpiperidin-4-yl)benzamide] | < 1 nM
8 | CCCOc1cc(C(=O)NC2CCN(C)CC2)ccc1Nc1ncc2c(n1)N(C1CCCC1)CC(C)(C)C(=O)N2C [Compound 124, 4-(9-cyclopentyl-5,7,7-trimethyl-6-oxo-6,7,8,9-tetrahydro-5H-pyrimido[4,5-b][1,4]diazepin-2-ylamino)-N-(1-methylpiperidin-4-yl)-3-propoxybenzamide] | > 10 nM
9 | CC[C@@]1(C)CN(C2CCCC2)c2nc(Nc3ccc(C(=O)NC4CN(C)C4)cc3OC)ncc2N(C)C1=O [Compound 132, (S)-4-(9-cyclopentyl-7-ethyl-5,7-dimethyl-6-oxo-6,7,8,9-tetrahydro-5H-pyrimido[4,5-b][1,4]diazepin-2-ylamino)-3-methoxy-N-(1-methylazetidin-3-yl)benzamide] | 3.16 to 10 nM
10 | CC[C@@]1(C)CN(C2CCCC2)c2nc(Nc3ccc(C(=O)NN4CCN(C)CC4)cc3OC)ncc2N(C)C1=O [Compound 133, (S)-4-(9-cyclopentyl-7-ethyl-5,7-dimethyl-6-oxo-6,7,8,9-tetrahydro-5H-pyrimido[4,5-b][1,4]diazepin-2-ylamino)-3-methoxy-N-(4-methylpiperazin-1-yl)benzamide] | > 10 nM
11 | CC[C@@]1(C)CN(C2CCCC2)c2nc(Nc3ccc(C(=O)N[C@@H]4CCCNC4)cc3OC)ncc2N(C)C1=O [Compound 134, 4-((S)-9-cyclopentyl-7-ethyl-5,7-dimethyl-6-oxo-6,7,8,9-tetrahydro-5H-pyrimido[4,5-b][1,4]diazepin-2-ylamino)-3-methoxy-N-((R)-piperidin-3-yl)benzamide] | 3.16 to 10 nM
12 | CCC1(C)CN(C2CCCCC2)c2nc(Nc3ccc(C(=O)NC4CN(C)C4)cc3OC)ncc2N(C)C1=O (centres unmarked) [Compound 140, 4-(9-cyclohexyl-7-ethyl-5,7-dimethyl-6-oxo-6,7,8,9-tetrahydro-5H-pyrimido[4,5-b][1,4]diazepin-2-ylamino)-3-methoxy-N-(1-methylazetidin-3-yl)benzamide] | 3.16 to 10 nM
13 | CCC1(C)CN(C2CCCCC2)c2nc(Nc3ccc(C(=O)N[C@H]4CC[C@H](O)CC4)cc3OC)ncc2N(C)C1=O (stereo partly drawn) [Compound 141, 4-(9-cyclohexyl-7-ethyl-5,7-dimethyl-6-oxo-6,7,8,9-tetrahydro-5H-pyrimido[4,5-b][1,4]diazepin-2-ylamino)-N-((1R,4R)-4-hydroxycyclohexyl)-3-methoxybenzamide] | 3.16 to 10 nM
14 | CC[C@]1(C)CN(C2CCCCC2)c2nc(Nc3ccc(C(=O)NC4CN(C)C4)cc3OC)ncc2N(C)C1=O [Compound 145, (R)-4-(9-cyclohexyl-7-ethyl-5,7-dimethyl-6-oxo-6,7,8,9-tetrahydro-5H-pyrimido[4,5-b][1,4]diazepin-2-ylamino)-3-methoxy-N-(1-methylazetidin-3-yl)benzamide] | 3.16 to 10 nM
15 | CC[C@@]1(C)CN(C2CCCCC2)c2nc(Nc3ccc(C(=O)N[C@@H]4CCCNC4)cc3OC)ncc2N(C)C1=O [Compound 148, 4-((S)-9-cyclohexyl-7-ethyl-5,7-dimethyl-6-oxo-6,7,8,9-tetrahydro-5H-pyrimido[4,5-b][1,4]diazepin-2-ylamino)-3-methoxy-N-((R)-piperidin-3-yl)benzamide] | 3.16 to 10 nM
16 | CC[C@@]1(C)CN(C2CCCCC2)c2nc(Nc3ccc(C(=O)N[C@H]4CCCNC4)cc3OC)ncc2N(C)C1=O [Compound 149, 4-((S)-9-cyclohexyl-7-ethyl-5,7-dimethyl-6-oxo-6,7,8,9-tetrahydro-5H-pyrimido[4,5-b][1,4]diazepin-2-ylamino)-3-methoxy-N-((S)-piperidin-3-yl)benzamide] | 3.16 to 10 nM
17 | CC[C@]1(C)CN(C2CCCCC2)c2nc(Nc3ccc(C(=O)N[C@H]4CCCNC4)cc3OC)ncc2N(C)C1=O [Compound 151, 4-((R)-9-cyclohexyl-7-ethyl-5,7-dimethyl-6-oxo-6,7,8,9-tetrahydro-5H-pyrimido[4,5-b][1,4]diazepin-2-ylamino)-3-methoxy-N-((S)-piperidin-3-yl)benzamide] | 3.16 to 10 nM
18 | COc1cc(C(=O)NC2CCN(C)CC2)ccc1Nc1ncc2c(n1)N(C1CCC1)CC(C)(C)C(=O)N2C [Compound 153, 4-(9-cyclobutyl-5,7,7-trimethyl-6-oxo-6,7,8,9-tetrahydro-5H-pyrimido[4,5-b][1,4]diazepin-2-ylamino)-3-methoxy-N-(1-methylpiperidin-4-yl)benzamide] | 3.16 to 10 nM
19 | COc1cc(C(=O)NC2CN(C)C2)ccc1Nc1ncc2c(n1)N(C1CCC1)CC(C)(C)C(=O)N2C [Compound 154, 4-(9-cyclobutyl-5,7,7-trimethyl-6-oxo-6,7,8,9-tetrahydro-5H-pyrimido[4,5-b][1,4]diazepin-2-ylamino)-3-methoxy-N-(1-methylazetidin-3-yl)benzamide] | 3.16 to 10 nM
20 | COc1cc(C(=O)NC2CCN(C)CC2)ccc1Nc1ncc2c(n1)N(C(C)C)CC(C)(C)C(=O)N2C [Compound 155, 4-(9-isopropyl-5,7,7-trimethyl-6-oxo-6,7,8,9-tetrahydro-5H-pyrimido[4,5-b][1,4]diazepin-2-ylamino)-3-methoxy-N-(1-methylpiperidin-4-yl)benzamide] | 3.16 to 10 nM
